Laboratory results reported in patent US20220117958A1, “COMPOSITIONS AND METHODS FOR INHIBITING ACSS2” (THE TRUSTEES OF THE UNIVERSITY OF PENNSYLVANIA, priority 2018, published 2022).
In brackets after ≈: the same amount, converted by molar mass. Several values for one entry are separate records, joined by “and”; a condition that tells them apart may be missing. Equal entries are not always repeated. Where two headings read alike, the source gives them in different places. Marks after values point to notes of the source that are not given here.

Key:
[1] = Microsomal stability assay (half-life), human; assay type: in vitro ADME; conditions: Human microsomes, read-out: Microsomal stability T1/2
Source text: (§1) Table 20 provides results of in vitro and in vivo pharmacokinetics performed for each of the represented compounds.

[2] = In vivo PK, oral gavage, plasma; set-up: species or system Rat (SD); conditions: Rat, PO 5 mg/kg, BQL limit 1.00 ng/mL, listed as ADG I-206, 5 mg/kg
[3] = In vivo PK, IV dose, plasma; set-up: species or system Rat (SD); conditions: for Plasma concentration, mean / Plasma concentration, individual animal: IV 1 mg/kg
Source text: as §1
(§2) Tables 4 and 5 depict the summary of rat plasma sample concentrations after administration of ADG I-204. FIG. 6 provides a summary of rat plasma and brain concentrations.

[4] = Turbidity-based aqueous solubility; assay type: physicochemical; conditions: aqueous solution (composition not given), kinetic from dmso stock, read-out: highest soluble concentration
Source text: as §1

[5] = Microsomal stability assay (half-life), rat; assay type: in vitro ADME; conditions: Rat (SD) microsomes, read-out: Microsomal stability T1/2
Source text: as §1

[6] = Microsomal stability assay (half-life), mouse; assay type: in vitro ADME; conditions: Mouse (CD1) microsomes, read-out: Microsomal stability T1/2
Source text: as §1

[7] = tested on: H3K9ac; assay: Western blot, differentiated CAD cell lysates, H3K9ac levels; assay type: cell-based; conditions: differentiated CAD cells, DMSO = 100.00%
Source text: as §1

[8] = In vivo PK, IV dose, Terminal - brain (brain availability); set-up: species or system Rat (SD); conditions: for Brain concentration, mean / Brain concentration, individual animal: IV 1 mg/kg
Description: Table 3 and FIG. 5 depict the brain availability of ADG I-204, ADG I-205, ADG I-206, and ADG I-207 after IV administration of 1 mg/kg dose.

[9] = In vivo PK, oral gavage, plasma; set-up: species or system Rat (SD)
Source text: as §1, §2

[10] = Protein binding via Rapid Equilibrium Dialysis - plasma; assay type: in vitro ADME; conditions: Rat (SD) plasma, 2 μM
Source text: as §1

Structure (SMILES): CNC(=O)Nc1ccc2nc(-c3cccs3)c(-c3cccs3)nc2c1 [ADG-206, 1-(2,3-di(thiophen-2-yl)quinoxalin-6-yl)-3-methylurea]
- half-life at 2 μM [1]: 43.3 min
- Plasma concentration, individual animal ([2]; 0.250 hr): BQL
- Plasma concentration, individual animal ([2]; 0.500 hr): 2.16 ng/mL and 1.93 ng/mL
- Plasma concentration, individual animal ([2]; 1.00 hr): 9.00 ng/mL and 6.94 ng/mL
- Plasma concentration, individual animal ([2]; 4.00 hr): 17.2 ng/mL and 8.32 ng/mL
- Plasma concentration, individual animal ([2]; 8.00 hr): 8.89 ng/mL
- Plasma concentration, mean ([3]; Rat (SD), 8 hr, terminal, listed as ADG I-206, 1 mg/kg): 5 ng/mL
- Plasma concentration, mean ([3]; Rat (SD), 24 hr, terminal, BQL limit 1.00 ng/mL (ADG I-205: 2.00 ng/mL)): BQL
- Plasma concentration, individual animal ([3]; Rat, 0.0830 hr, terminal, third animal received only 70% of the test article, listed as ADG I-206, 1 mg/kg): 1500 ng/mL and 1160 ng/mL and 610*** ng/mL
- Plasma concentration, individual animal ([3]; Rat, 0.500 hr, not terminal (animals 4, 5 and 6), listed as ADG I-206, 1 mg/kg): 7310** ng/mL and 527 ng/mL and 507 ng/mL
- Plasma concentration, individual animal ([3]; Rat, 1.00 hr, terminal, listed as ADG I-206, 1 mg/kg): 177 ng/mL and 142 ng/mL
- Plasma concentration, individual animal ([3]; Rat, 4.00 hr, terminal, BQL limit 1.00 ng/mL (ADG I-205: 2.00 ng/mL), listed as ADG I-206, 1 mg/kg): 4.19 ng/mL and 1.81 ng/mL
- Plasma concentration, individual animal ([3]; Rat, 8.00 hr, terminal, BQL limit 1.00 ng/mL (ADG I-205: 2.00 ng/mL), listed as ADG I-206, 1 mg/kg): BQL and 1.44 ng/mL and 8.52 ng/mL
- Plasma concentration, individual animal ([3]; Rat, 24.0 hr, terminal, BQL limit 1.00 ng/mL (ADG I-205: 2.00 ng/mL)): BQL
- concentration at 0.083 h ([3]; SD, rat, plasma, iv, 1 mg/kg, Rat (SD), 0.083 hr, terminal, read-out: Plasma concentration, mean): 1090 ng/mL
- concentration at 0.5 h ([3]; SD, rat, plasma, iv, 1 mg/kg, Rat (SD), 0.500 hr, not a terminal time point (animals 4, 5 and 6)): 2780 ng/mL
- concentration at 1 h ([3]; SD, rat, plasma, iv, 1 mg/kg, Rat (SD), 1 hr, terminal, read-out: Plasma concentration, mean): 165 ng/mL
- concentration at 4 h ([3]; SD, rat, plasma, iv, 1 mg/kg, Rat (SD), 4 hr, terminal, read-out: Plasma concentration, mean): 3 ng/mL
- concentration at 8 h ([3]; SD, rat, plasma, iv, 1 mg/kg, Rat (SD), 8 hr, terminal, read-out: Plasma concentration, mean): 4.98 ng/mL
- concentration at 1 h ([3]; SD, rat, plasma, iv, 1 mg/kg, Rat, 1.00 hr, terminal, read-out: Plasma concentration, individual animal): 176 ng/mL
- solubility [4]: 5 µM (≈ 1.83 µg/mL)
- half-life at 2 μM [5]: 6.36 min
- half-life at 2 μM [6]: 4.39 min
- H3K9ac levels normalized to H3 and DMSO control ([7]; 1 uM): 46.94%
- H3K9ac levels normalized to H3 and DMSO control ([7]; 5 uM): 35.39%
- H3K9ac levels normalized to H3 and DMSO control ([7]; 10 uM): 19.49%
- H3K9ac levels normalized to H3 and DMSO control ([7]; 20 uM): 8.45%
- H3K9ac levels normalized to H3 and DMSO control ([7]; 50 uM): 5.83%
- H3K9ac levels normalized to H3 and DMSO control ([7]; 100 uM): 1.24%
- Brain concentration, mean ([8]; Rat (SD), 1 hr, listed as ADG I-206, 1 mg/kg): 67 ng/g
- Brain concentration, mean ([8]; Rat (SD), 4 hr, BQL limit 10.0 ng/g (204, 206), 20.0 ng/g (205, 207)): BQL
- Brain concentration, mean ([8]; Rat (SD), 8 hr, BQL limit 10.0 ng/g (204, 206), 20.0 ng/g (205, 207)): BQL
- Brain concentration, mean ([8]; Rat (SD), 24 hr, BQL limit 10.0 ng/g (204, 206), 20.0 ng/g (205, 207)): BQL
- Brain concentration, individual animal ([8]; Rat, 0.0830 hr, third animal received only 70% of the test article, listed as ADG I-206, 1 mg/kg): 1080 ng/g and 1050 ng/g and 455*** ng/g
- Brain concentration, individual animal ([8]; Rat, 1.00 hr, listed as ADG I-206, 1 mg/kg): 57.6 ng/g and 74.3 ng/g
- Brain concentration, individual animal ([8]; Rat, 4.00 hr, BQL limit 10.0 ng/g (204, 206), 20.0 ng/g (205, 207)): BQL
- Brain concentration, individual animal ([8]; Rat, 8.00 hr, BQL limit 10.0 ng/g (204, 206), 20.0 ng/g (205, 207)): BQL
- Brain concentration, individual animal ([8]; Rat, 24.0 hr, BQL limit 10.0 ng/g (204, 206), 20.0 ng/g (205, 207)): BQL
- concentration at 0.083 h ([8]; SD, rat, brain, iv, 1 mg/kg, Rat (SD), 0.083 hr): 862 ng/g
- concentration at 1 h ([8]; SD, rat, brain, iv, 1 mg/kg, Rat (SD), 1 hr, read-out: Brain concentration, mean): 66.9 ng/g
- concentration at 1 h ([8]; SD, rat, brain, iv, 1 mg/kg, Rat, 1.00 hr, read-out: Brain concentration, individual animal): 68.8 ng/g
- Plasma concentration, mean ([9]; Rat (SD), PO 5 mg/kg, 24 hr, BQL = below quantitation limit (1.00 ng/mL)): BQL
- Plasma concentration, individual animal ([9]; Rat, PO 5 mg/kg, 24.0 hr, BQL limit 1.00 ng/mL): BQL
- concentration at 0.25 h ([9]; SD, rat, plasma, po, 5 mg/kg, Rat (SD), 0.25 hr, BQL = below quantitation limit (1.00 ng/mL), read-out: Plasma concentration, mean): 1.47 ng/mL
- concentration at 0.5 h ([9]; SD, rat, plasma, po, 5 mg/kg, Rat (SD), 0.5 hr, BQL = below quantitation limit (1.00 ng/mL), read-out: Plasma concentration, mean): 2.32 ng/mL
- concentration at 1 h ([9]; SD, rat, plasma, po, 5 mg/kg, Rat (SD), 1 hr, BQL = below quantitation limit (1.00 ng/mL), read-out: Plasma concentration, mean): 7.14 ng/mL
- concentration at 4 h ([9]; SD, rat, plasma, po, 5 mg/kg, Rat (SD), 4 hr, BQL = below quantitation limit (1.00 ng/mL)): 12.8 ng/mL
- concentration at 8 h ([9]; SD, rat, plasma, po, 5 mg/kg, Rat (SD), 8 hr, BQL = below quantitation limit (1.00 ng/mL), read-out: Plasma concentration, mean): 12.2 ng/mL
- concentration at 0.25 h ([9]; SD, rat, plasma, po, 5 mg/kg, Rat, 0.250 hr, BQL limit 1.00 ng/mL, read-out: Plasma concentration, individual animal): 1.47 ng/mL
- concentration at 0.5 h ([9]; SD, rat, plasma, po, 5 mg/kg, Rat, 0.500 hr, BQL limit 1.00 ng/mL, read-out: Plasma concentration, individual animal): 2.86 ng/mL
- concentration at 1 h ([9]; SD, rat, plasma, po, 5 mg/kg, Rat, 1.00 hr, BQL limit 1.00 ng/mL, read-out: Plasma concentration, individual animal): 5.47 ng/mL
- concentration at 8 h ([9]; SD, rat, plasma, po, 5 mg/kg, Rat, 8.00 hr, BQL limit 1.00 ng/mL, read-out: Plasma concentration, individual animal): 15.6 ng/mL
- Protein binding, plasma: % Protein free [10]: 0.6565 % Protein free
